Laboratory results as given in patent US20120115869A1, “TETRAZOLE DERIVATIVES” (MERCK SERONO S.A., priority 2009, published 2012).

What was measured:
CRTH2 (DP2) = molecular target: T1, CRTH2 (DP2) (Homo sapiens, UniProt Q9Y5Y4); assay: Radioligand binding Scintillation Proximity Assay ([3H]PGD2, hCRTH2-CHO cell membranes); details: 1.5 nM [3H]PGD2, hCRTH2-CHO cell membranes, SPA
T1 construct: host or cells: CHO cells
T1 sequence (Q9Y5Y4 1-395): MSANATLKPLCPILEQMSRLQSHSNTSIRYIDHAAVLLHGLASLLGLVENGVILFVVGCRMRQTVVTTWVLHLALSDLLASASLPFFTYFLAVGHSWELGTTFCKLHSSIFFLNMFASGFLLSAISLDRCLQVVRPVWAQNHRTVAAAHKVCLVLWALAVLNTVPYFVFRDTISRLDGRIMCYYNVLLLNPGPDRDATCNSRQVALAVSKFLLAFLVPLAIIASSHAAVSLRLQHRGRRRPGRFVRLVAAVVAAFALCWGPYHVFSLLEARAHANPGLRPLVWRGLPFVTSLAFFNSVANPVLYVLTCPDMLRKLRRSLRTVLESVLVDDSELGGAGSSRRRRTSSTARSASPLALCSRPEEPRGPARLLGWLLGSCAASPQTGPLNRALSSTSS
Procedure: (§1) Adherent CHO cells expressing hCRTH2 (Euroscreen, Belgium) were cultured in 225 cm^2 cell culture flasks (Corning, USA) in 30 ml of medium. After two rinses of phosphate buffered saline (PBS), cells were harvested in 10 ml of PBS containing 1 mM EDTA, centrifuged at 500×g for 5 min at 4° C. and frozen at −80° C. The pellet was re-suspended in 50 mM Tris-HCl, pH 7.4, 2 mM EDTA, 250 mM Sucrose, containing protease inhibitor cocktail tablets, (Complete EDTA-free, Roche, Germany) and incubated 30 min at 4° C. Cells were disrupted by nitrogen cavitation (Parr Instruments, USA) at 4° C. (800 p.s.i. for 30 min), and centrifuged at 500×g for 10 min at 4° C. Pellet containing nuclei and cellular debris was discarded and supernatant was centrifuged 60 min at 4° C. at 45000×g. Membrane pellet was re-suspended in storage buffer (10 mM HEPES/KOH pH 7.4, 1 mM EDTA, 250 mM sucrose, protease inhibitor cocktail tablets) using Dounce homogenization and frozen in liquid nitrogen, and stored at 80° C.
Non-specific binding was determined in the presence of 10 μM PGD2 (Cayman, USA). Competing Compounds of Formula (I) were diluted in dimethylsulphoxide so that the total volume of dimethylsulfoxide was kept constant at 1% dimethylsulphoxide (Me2SO). Serial dilutions of […] were prepared and 10 μl each of the compounds of Formula (I) stock solutions were added to the binding assay reagents and incubated for 90 min with agitation at room temperature.

CRTH2 = molecular target: T2, CRTH2 (Homo sapiens, UniProt Q9Y5Y4); assay: [35S]GTPγS binding assay on CHO-CRTH2 cell membranes; assay type: biochemical; details: without addition of PGD2; 100% of Emax being the activity measured by the addition of 1 μM of PGD2
T2 construct: expressed in transfected cells; host or cells: CHO cells
T2 sequence (Q9Y5Y4 1-395): T1 sequence (Q9Y5Y4 1-395)
Procedure: as §1
The [^35S]GTPγS assay measures the increase in guanine nucleotide exchange at G-proteins in cell membranes, resulting from agonist (PGD2) binding to CRTH2. […] Briefly, Compounds of Formula (I) are incubated in 96-well scintillating white polystyrene plates (Perkin Elmer, USA) in a final volume of 200 μl containing 20 mM HEPES/KOH pH 7.4, 3 mM MgCl2, 10 μg/ml Saponin, 5 μM GDP, 75 mM NaCl and 2% of dimethylsulphoxide (DMSO). […] After 60 min incubation at 30° C., reaction is stopped by centrifugation at 700×g, at 4° C. for 10 minutes and supernatant is removed. […] For IC50 determination, increasing concentrations of compounds are incubated in presence of a fixed concentration of PGD2 (EC80). For EC50 measurements, compounds are incubated without addition of PGD2. Basal [^35S]GTPγS activity is determined without addition of any ligands or compounds. 100% [^35S]GTPγS activity is measured by the addition of 1 μM of PGD2.

SMILES | IC50 (CRTH2 (DP2)) | Emax (CRTH2)
CCC(=O)N(Cc1cccc(OC)c1)c1cc(F)cc(-c2nnn[nH]2)c1 [Example 39, N-[3-fluoro-5-(1H-tetrazol-5-yl)phenyl]-N-(3-methoxybenzyl)propanamide] | 9.6 nM | -11.2%
CCC(=O)N(Cc1cccc(O)c1)c1cc(F)cc(-c2nnn[nH]2)c1 [Example 84, N-[3-fluoro-5-(1H-tetrazol-5-yl)phenyl]-N-(3-hydroxybenzyl)propanamide] | – | -17.1%
CCC(=O)N(Cc1ccc(-c2c(C)nn(C)c2C)cc1)c1cc(F)cc(-c2nnn[nH]2)c1 [Example 94, N-[3-fluoro-5-(1H-tetrazol-5-yl)phenyl]-N-[4-(1,3,5-trimethyl-1H-pyrazol-4-yl)benzyl]propanamide] | 21 nM | –
CCC(=O)N(Cc1ccc(S(=O)(=O)C(F)(F)F)cc1)c1cc(F)cc(-c2nnn[nH]2)c1 [Example 95, N-[3-fluoro-5-(1H-tetrazol-5-yl)phenyl]-N-{4-[(trifluoromethyl)sulfonyl]benzyl}propanamide] | 5.6 nM | –
CCC(=O)N(Cc1cccc(-c2ccncc2)c1)c1cccc(-c2nnn[nH]2)c1 [Example 96, N-(3-pyridin-4-ylbenzyl)-N-[3-(1H-tetrazol-5-yl)phenyl]propanamide] | 330 nM | –
CCC(=O)N(Cc1ccc(-c2ccccc2)cc1)c1cc(F)cc(-c2nnn[nH]2)c1 [Example 97, N-(biphenyl-4-ylmethyl)-N-[3-fluoro-5-(1H-tetrazol-5-yl)phenyl]propanamide] | 70 nM | –
CCC(=O)N(Cc1ccc(-c2ccccc2Cl)cc1)c1cc(F)cc(-c2nnn[nH]2)c1 [Example 98, N-[(2′-chlorobiphenyl-4-yl)methyl]-N-[3-fluoro-5-(1H-tetrazol-5-yl)phenyl]propanamide] | 31 nM | –
CCC(=O)N(Cc1ccc(-c2ccccc2OC)cc1)c1cc(F)cc(-c2nnn[nH]2)c1 [Example 99, N-[3-fluoro-5-(1H-tetrazol-5-yl)phenyl]-N-[(2′-methoxybiphenyl-4-yl)methyl]propanamide] | 13 nM | –
CCC(=O)N(Cc1ccc(-c2c(C)cccc2C)cc1)c1cc(F)cc(-c2nnn[nH]2)c1 [Example 100] | 8.3 nM | -16.7%
CCC(=O)N(Cc1cccc(-c2cn[nH]c2)c1)c1cc(F)cc(-c2nnn[nH]2)c1 [Example 101, N-[3-fluoro-5-(1H-tetrazol-5-yl)phenyl]-N-[3-(1H-pyrazol-4-yl)benzyl]propanamide] | 19 nM | –
CCC(=O)N(Cc1ccc(-c2ccccc2C)cc1)c1cc(F)cc(-c2nnn[nH]2)c1 [Example 102, N-[3-fluoro-5-(1H-tetrazol-5-yl)phenyl]-N-[(2′-methylbiphenyl-4-yl)methyl]propanamide] | 8.9 nM | –
CCC(=O)N(Cc1ccc2c(c1)OC(F)(F)O2)c1cc(Cl)cc(-c2nnn[nH]2)c1 [Example 103, N-[3-chloro-5-(1H-tetrazol-5-yl)phenyl]-N-[(2,2-difluoro-1,3-benzodioxol-5-yl)methyl]propanamide] | 13 nM | –
CS(=O)(=O)c1ccc(CN(C(=O)c2ccncc2)c2cc(F)cc(-c3nnn[nH]3)c2)cc1 [Example 106, N-[3-fluoro-5-(1H-tetrazol-5-yl)phenyl]-N-[4-(methylsulfonyl)benzyl]isonicotinamide] | 20 nM | –
Cc1ccc(CCC(=O)N(Cc2ccc(S(C)(=O)=O)cc2)c2cc(F)cc(-c3nnn[nH]3)c2)cc1 [Example 107, N-[3-fluoro-5-(1H-tetrazol-5-yl)phenyl]-3-(4-methylphenyl)-N-[4-(methylsulfonyl)benzyl]propanamide] | 2.9 nM | –
Cc1cc(C(=O)N(Cc2ccc(S(C)(=O)=O)cc2)c2cc(F)cc(-c3nnn[nH]3)c2)n(C)n1 [Example 110, N-[3-fluoro-5-(1H-tetrazol-5-yl)phenyl]-1,3-dimethyl-N-[4-(methylsulfonyl)benzyl]-1H-pyrazole-5-carboxamide] | 56 nM | –
CCC(=O)N(Cc1ccc(-c2cnoc2)cc1)c1cc(F)cc(-c2nnn[nH]2)c1 [Example 111, N-[3-fluoro-5-(1H-tetrazol-5-yl)phenyl]-N-(4-isoxazol-4-ylbenzyl)propanamide] | 113 nM | –
CCC(=O)N(Cc1cccc([S+]([O-])C(F)(F)F)c1)c1cc(F)cc(-c2nnn[nH]2)c1 (centres unmarked) [Example 112, N-[3-fluoro-5-(1H-tetrazol-5-yl)phenyl]-N-{3-[(trifluoromethyl)sulfinyl]benzyl}propanamide] | 19 nM | –
CCC(=O)N(Cc1ccc([S+]([O-])C(F)(F)F)cc1)c1cc(F)cc(-c2nnn[nH]2)c1 (centres unmarked) [Example 113, N-[3-fluoro-5-(1H-tetrazol-5-yl)phenyl]-N-{4-[(trifluoromethyl)sulfinyl]benzyl}propanamide] | 3.5 nM | –
CCC(=O)N(Cc1ccc(O)cc1)c1cc(F)cc(-c2nnn[nH]2)c1 [Example 114, N-[3-fluoro-5-(1H-tetrazol-5-yl)phenyl]-N-(4-hydroxybenzyl)propanamide] | 25 nM | –
CCC(=O)N(Cc1cccc(-c2ccn[nH]2)c1)c1cc(F)cc(-c2nnn[nH]2)c1 [Example 115, N-[3-fluoro-5-(1H-tetrazol-5-yl)phenyl]-N-[3-(1H-pyrazol-5-yl)benzyl]propanamide] | 30 nM | –
CS(=O)(=O)c1ccc(CN(C(=O)c2cccnc2)c2cc(F)cc(-c3nnn[nH]3)c2)cc1 [Example 116, N-[3-fluoro-5-(1H-tetrazol-5-yl)phenyl]-N-[4-(methylsulfonyl)benzyl]nicotinamide] | 4.6 nM | –
CC(C)C(=O)N(Cc1ccc(S(C)(=O)=O)cc1)c1cc(F)cc(-c2nnn[nH]2)c1 [Example 117, N-[3-fluoro-5-(1H-tetrazol-5-yl)phenyl]-2-methyl-N-[4-(methylsulfonyl)benzyl]propanamide] | 19 nM | –
CS(=O)(=O)c1ccc(CN(C(=O)C2CCOCC2)c2cc(F)cc(-c3nnn[nH]3)c2)cc1 [Example 118, N-[3-fluoro-5-(1H-tetrazol-5-yl)phenyl]-N-[4-(methylsulfonyl)benzyl]tetrahydro-2H-pyran-4-carboxamide] | 32 nM | –
CCC(=O)N(Cc1ccc(-c2sc(C)nc2C)cc1)c1cc(F)cc(-c2nnn[nH]2)c1 [Example 119, N-[4-(2,4-dimethyl-1,3-thiazol-5-yl)benzyl]-N-[3-fluoro-5-(1H-tetrazol-5-yl)phenyl]propanamide] | 5.2 nM | –
